Like-named read-outs stand apart in the source and are kept apart here.
Tests used:
human cathepsin K [1] = target: T1, human cathepsin K (Homo sapiens, UniProt P43235); assay: Recombinant enzyme assay, human cathepsin K; type: biochemical
T1 construct: made in house; host or cells: E. coli
T1 sequence (P43235 115-329): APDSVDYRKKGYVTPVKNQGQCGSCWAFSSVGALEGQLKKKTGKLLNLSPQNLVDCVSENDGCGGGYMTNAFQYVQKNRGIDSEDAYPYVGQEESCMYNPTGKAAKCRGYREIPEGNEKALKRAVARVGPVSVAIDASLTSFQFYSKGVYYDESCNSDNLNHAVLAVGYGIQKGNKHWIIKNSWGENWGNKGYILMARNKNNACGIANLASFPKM
Description: Recombinant cathepsin K enzymes from all species were expressed in E. coli, purified and activated. Human cathepsin F and cathepsin S were expressed in Baculovirus, purified and activated. Purified human cathepsins B and H (Athens Research Technology), cathepsin L (Calbiochem), and cathepsin V (R & D Systems) were purchased.
H-D-Ala_Leu-Lys-AMC was used as the substrate in assays of cathepsin K from non-rodent species (human, dog, rabbit and guinea pig), and Z-Leu-Arg-AMC was used as the substrate in assays of cathepsin K from rodent species (mouse and rat). […]
Assays were carried out in white polystyrene 96-well plates in a final volume of 100 µL. […] Plates were read in a Fluoroskan Ascent (Thermo Labsystems, Helsinki, Finland) in kinetic mode, with excitation and emission filters of 390 and 460 nm, respectively. Rates were determined by linear regression of the fluorescence/time data in Excel. Rates were fitted by non-linear regression to either the competitive inhibition equation, with the substrate concentration fixed at the value in the assay and the KM fixed to the value previously determined, or the IC50 equation using GraphPad Prism (GraphPad, version 6, San Diego, USA) to obtain Ki or IC50 values, respectively.

human cathepsin K [2] = target: T1, human cathepsin K; assay: Kinetics of inhibition by progress curve analysis; type: biochemical
Method: The kinetics of MIV-711 inhibition of human recombinant cathepsin K were measured by progress curve analysis. Briefly, 100 µmol/L substrate and 0.5 nmol/L cathepsin K were combined in 0.5 mL of buffer in a quartz cuvette and the fluorescence measured continuously in a spectrofluorometer (Hitachi F-4500, Hitachi Scientific Instruments, Woking, UK). Excitation wavelength was 385 nm and emission wavelength was 460 nm and slits were 5 and 10 nm for excitation and emission, respectively. PMT voltage was 700 V and the response time was 0.01 s. Once a linear rate was established, 5 µL MIV-711 (final assay concentration between 10 and 50 nmol/L) or 5 µL DMSO control was added and data collected until a new equilibrium rate was achieved. Data were imported into GraphPad Prism and then fitted to the Morrison equation [26] to obtain kobs. The kobs values were plotted against the inhibitor concentration and fitted to a straight line to obtain kon and koff.

plasma CTX-I = assay: Monkey plasma CTX-I, single oral dose; type: in vivo, cynomolgus monkeys (Macaca fascicularis)
Method: Eight cynomolgus monkeys (Macaca fascicularis) were used for measuring plasma levels of MIV-711 and CTX-I after a single dose. The animals were healthy young males, approximately 2–4 years old and weighing 3–4 kg. Experiments were performed at Covance Ltd (Harrogate, UK). The monkeys were used over an extended period of time (up to a year) and several cathepsin K inhibitors were evaluated during this time. At least 1 week was allowed for washout in between experiments. This was not believed to affect the results with MIV-711, and vehicle controls were run on a regular basis when appropriate. Each animal received at least one dose of MIV-711 and one dose of vehicle with at least 1 week of washout in between treatments.
In single dose experiments, animals were dosed with vehicle or MIV-711 (3–30 µmol/kg) via oral gavage at a dose volume of 4 mL/kg between 7:30 and 9:00 a.m. Blood samples were collected at baseline, 30 min, 1, 2, 4, 8, 12, 24 and 48 h after dose from the femoral vein and transferred into lithium heparin anticoagulant tubes. The samples were centrifuged and the two aliquots of the resultant plasma were frozen at − 70 °C. All samples were processed and stored within 30 min of collection. The aliquots were used to determine the MIV-711 concentration and CTX-I levels, respectively. [drawing 1]
Since the concentration of MIV-711 was measured in each animal it was possible to relate the MIV-711 exposure over 24 h to the % CTX-I inhibition over 24 h in each animal.
The quantification of CTX-I in monkey plasma samples and human serum samples was performed using a commercially available kit (Serum CrossLaps ELISA, IDS Nordic, Herlev, Denmark). The levels of CTX-I in monkey urine samples were measured using a commercially available kit (Urine BETA CrossLaps ELISA, IDS Nordic). The quantification of NTX-I in monkey samples was performed using a commercially available kit (Osteomark NTx Urine, Wampole Laboratories, Inc, Princeton, USA). Urinary levels of CTX-II in monkey samples were measured using a commercially available kit (Urine CrossLaps EIA, IDS Nordic). The concentrations of biomarkers in the urine samples were corrected for creatinine concentrations. The creatinine levels in urine were determined at Swedish University of Agricultural Sciences, using the enzymatic assay (cat no. 8L24-01) on the Abbott system Architect c4000.

urinary CTX-II = settings: cited from earlier work

C#C[C@@H]1CN(C(=O)[C@H](CC(C)C)NC(=O)c2ccc(-c3nc(N4CCN(C)CC4)sc3F)cc2)[C@@H]2C(=O)CO[C@H]12 [MIV-711]
Selectivity versus the other human cathepsins tested (human cathepsin K [1]; cathepsin K vs cathepsins B, L, F, V, H, S): more than 1300 fold
Ki (human cathepsin K [1]; human recombinant cathepsin K, geometric mean): 0.98 nM
residence time (human cathepsin K [2]; from koff): about 90 s
Ki (human cathepsin K [2]; from kon and koff experiments, read-out: Ki from kinetic experiments): 1.7 nM
koff rate (human cathepsin K [2]; human cathepsin K): 0.008 s⁻¹
kon rate (human cathepsin K [2]; human cathepsin K): 4.6e+06 M⁻¹ s⁻¹
Effect on plasma CTX-I versus vehicle (plasma CTX-I; 3 µmol/kg p.o. (p > 0.05)): did not differ significantly vs. vehicle
Effect on plasma CTX-I versus vehicle (plasma CTX-I; 10 µmol/kg p.o., between 8 and 24 h post-dose (p < 0.05)): statistically significant versus vehicle
Exposure required for 50% reduction of CTX-I at 24 h post dose (plasma CTX-I; AUC0–24h): 1.5 µmol/L/h
Reduction of plasma CTX-I compared to baseline (plasma CTX-I; highest dose (30 µmol/kg p.o.), 24 h post-dose): 57%
Reduction of urinary CTX-II (urinary CTX-II; healthy subjects, 200 mg daily for 7 days): 72%
Reduction of urinary CTX-II (urinary CTX-II; postmenopausal women, 100 mg once daily for 1 month): 55%
